Data published in patent US11412737B2, “Mixtures of beflubutamid or optically enriched forms thereof with a second herbicide” (FMC Corporation, priority 2016, dated 2022).

Key:
[1] = test system: beggerticks (BIDPI); test: post-emergence test, weed control; assay type: in vivo, Bidens pilosa; conditions: post-emergent, 28 DAT, COC 1%, rate g ai/ha by row: r5 94, r6 125, r7 250, r8 1.25, r9 2.5, r10 5, r11 94+1.25, r13 125+1.25, r15 94+2.5, r17 125+2.5, r19 94+5, r21 125+5
Protocol: (§1) Test compositions containing the test compounds were diluted with water to provide the appropriate test rate concentrations.
(§2) For post-emergence testing, seeds of each species for each rate of application of each herbicide solution were planted in 7.5 cm×7.5 cm plastic pots filled with potting soil. The seeds were germinated and the resulting plants were allowed to grow in a greenhouse until they reached a growth stage, such as height, suitable for testing. […] Pots of post-emergent treated plants were returned to the greenhouse and not watered for 24 hours after treatment. Thereafter they were regularly watered and fertilized for the duration of the test.
(§3) The control of weeds was evaluated in each experimental test at 21 for wheat and 28 days after treatment (DAT) for all species. […] The rating system is as follows in Table 1.

[2] = test system: Barley (B); test: post-emergence test, crop injury; assay type: in vivo; conditions: post-emergent, 28 DAT, BFL racemic, height at application 14 cm; rate g ai/ha by row: r7 94, r8 125, r9 188, r10 125, r11 250, r12 94+125, r13 125+125, r14 188+125, r15 94+250, r16 125+250, r17 188+250
Protocol: as §1, §2, §3

[3] = test system: Jimsonweed (DATST); test: pre-emergence test, weed control; assay type: in vivo, Datura stramonium; conditions: pre-emergent, 28 DAT, combination of both
Protocol: as §1
(§4) For pre-emergence testing, four disposable fiber flats (6 inch by 10 inch) for each rate of application of each herbicide solution were filled with top soil, to which seeds of each species were planted in furrows made by a template pressed on the top of the soil. The furrows were covered with soil after planting the seed and were watered well before application of the test compounds.
(§5) Fiber flats designated for treatment were placed in a spray chamber having a static platform and a movable sprayer and the height of the spray nozzle was 10.5 inches above the soil level. Once the sprayer was calibrated using water for spray volume of 30 gallons per acre, flats were sprayed with sprayer at a speed to receive a coverage equivalent of 30 gallons per acre. The application rates are those shown in the Tables below for the individual herbicidal solutions and the herbicide compositions of this invention. The pre-emergence flats were immediately placed in the greenhouse and watered lightly after treatment. Thereafter they were regularly watered and fertilized for the duration of the test.
(§6) The control of weeds was evaluated in each experimental test at 21 for wheat and 28 days after treatment (DAT) for all species. Data were analyzed using Minitab software at 95% confidence interval. The results, shown as an average of the replications, were compared with results observed in untreated control flats in the same tests. Percent control was determined by a method similar to the 0 to 100 rating system disclosed in “Research Methods in Weed Science,” 2nd ed., B. Truelove, Ed.; Southern Weed Science Society; Auburn University, Auburn, Ala., 1977. The rating system is as follows in Table 1.

[4] = test system: Palmer amaranth (AMAPA); test: post-emergence test, weed control; assay type: in vivo, Amaranthus palmeri; conditions: post-emergent, 28 DAT, COC 1%, rate g ai/ha by row: r5 94, r6 125, r7 250, r8 1.25, r9 2.5, r10 5, r11 94+1.25, r13 125+1.25, r15 94+2.5, r17 125+2.5, r19 94+5, r21 125+5
Protocol: as §1, §2, §3

[5] = test system: Common chickweed (STEME); test: post-emergence test, weed control; assay type: in vivo, Stellaria media; conditions: post-emergent, 28 DAT
Protocol: as §1, §2, §3

[6] = test system: Chinese sprangletop (LEFCH); test: post-emergence test, weed control; assay type: in vivo; conditions: post-emergent, 28 DAT, height ≤0.5 cm, rate g ai/ha by row: r7 94, r8 125, r9 188, r10 125, r11 250, r12 94+125, r13 125+125, r14 188+125, r15 94+250, r16 125+250, r17 188+250
[7] = test system: Marestail (horsetail) (ERICA); test: post-emergence test, weed control; assay type: in vivo; conditions: post-emergent, 28 DAT, height 1 cm (3-5 rosette); rate g ai/ha by row: r25 94, r26 125, r27 188, r28 125, r29 250, r30 94+125, r31 125+125, r32 188+125, r33 94+250, r34 125+250, r35 188+250
[8] = test system: Green foxtail (SETVI); test: pre-emergence test, weed control; assay type: in vivo, Setaria viridis; conditions: pre-emergent, 28 DAT
Protocol: as §1, §4, §5, §6

[9] = test system: Blackgrass (ALOMY); test: pre-emergence test, weed control; assay type: in vivo; conditions: pre-emergent, 28 DAT
Protocol: as §1, §4, §5, §6

[10] = (+)-BFL >95% e.e., rate g ai/ha by row: r6 62.5, r7 125, r8 62.5, r9 125, r10 222, r11 445, r12 22.5, r13 45, r14 62.5+62.5, r15 125+62.5, r16 62.5+125, r17 125+125, r18 62.5+222, r19 125+222, r20 62.5+445, r21 125+445, r22 62.5+22.5, r23 125+22.5, r24 62.5+45, r25 125+45, 62.5 g ai/ha
[11] = (+)-BFL >95% e.e., rate g ai/ha by row: r6 62.5, r7 125, r8 62.5, r9 125, r10 222, r11 445, r12 22.5, r13 45, r14 62.5+62.5, r15 125+62.5, r16 62.5+125, r17 125+125, r18 62.5+222, r19 125+222, r20 62.5+445, r21 125+445, r22 62.5+22.5, r23 125+22.5, r24 62.5+45, r25 125+45, 125 g ai/ha
[12] = (−)-BFL >95% e.e., rate g ai/ha by row: r6 62, r7 125, r8 125, r9 250, r10 445, r11 890, r12 45, r13 90, r14 62+125, r15 125+125, r16 62+250, r17 125+250, r18 62+445, r19 125+445, r20 62+890, r21 125+890, r22 62+45, r23 125+45, r24 62+90, r25 125+90, 125 g ai/ha
[13] = (−)-BFL >95% e.e., rate g ai/ha by row: r6 62, r7 125, r8 125, r9 250, r10 445, r11 890, r12 45, r13 90, r14 62+125, r15 125+125, r16 62+250, r17 125+250, r18 62+445, r19 125+445, r20 62+890, r21 125+890, r22 62+45, r23 125+45, r24 62+90, r25 125+90, 250 g ai/ha

Q: With `CCC(Oc1ccc(F)c(C(F)(F)F)c1)C(=O)NCc1ccccc1` (racemic) [BFL, 2-[4-fluoro-3-(trifluoromethyl)phenoxy]-N-(phenylmethyl)butanamide] as the molecule, how does the “percentage of weed control, Beggerticks BIDPI” value ([1]; BFL at 94 g ai/ha) read?
A: 5%

Q: And the “percentage of weed control, Beggerticks BIDPI” value ([1]; BFL at 125 g ai/ha)?
A: 10%

Q: And the “percentage of crop injury, B” value [2]?
A: 1%

Q: What about the control of jimsonweed ([3]; BFL at 62.5 g, PTX at 90 g) of the same molecule?
A: 4%

Q: And the control of jimsonweed ([3]; BFL at 187.5 g, PYX at 90 g)?
A: 30%

Q: What about the “percentage of weed control, Palmer amaranth AMAPA” value (“percentage … Palmer amaranth AMAPA” below) ([4]; BFL at 94 g ai/ha) of the same molecule?
A: 46%

Q: What about the “percentage … Palmer amaranth AMAPA” value ([4]; BFL at 125 g ai/ha) of the same molecule?
A: 48%

Q: And the “percentage … Palmer amaranth AMAPA” value ([4]; BFL at 250 g ai/ha)?
A: 53%

Q: What about the “percentage of weed control, Common chickweed STEME” value ([5]; COC 1%, rate g ai/ha by row: r5 94, r6 125, r7 250, r8 1.25, r9 2.5, r10 5, r11 94+1.25, r13 125+1.25, r15 94+2.5, r17 125+2.5, r19 94+5, r21 125+5) of the same molecule?
A: 5%

Q: And the “control of common chickweed” value ([5]; BFL at 187.5 g, PYX at 45 g, combination of both)?
A: 16%

Q: For `CC1(C)CON(Cc2ccc(Cl)cc2Cl)C1=O` [DCI, 2-(2,4-dichlorophenyl)methyl-4,4-dimethyl-3-isoxazolidinone], which “percentage of weed control, LEFCH” value ([6]; 125 g ai/ha) is on record?
A: 89%

Q: What about the “percentage of weed control, LEFCH” value ([6]; 250 g ai/ha) of the same molecule?
A: 79%

Q: And the “percentage of weed control, ERICA” value [7]?
A: 0%

Q: And the “percentage of weed control, SETVI” value [8, 10]?
A: 91%

Q: What about the “percentage of weed control, SETVI” value [8, 11] of the same molecule?
A: 99%

Q: And the “percentage of weed control, SETVI” value [8, 12]?
A: 98%

Q: What about the “percentage of weed control, SETVI” value [8, 13] of the same molecule?
A: 99%

Q: And the “percentage of weed control, ALOMY” value [9, 10]?
A: 65%

Q: What about the “percentage of weed control, ALOMY” value [9, 11] of the same molecule?
A: 64%

Q: What about the “percentage of weed control, ALOMY” value [9, 12] of the same molecule?
A: 98%

Q: And the “percentage of weed control, ALOMY” value [9, 13]?
A: 99%
